Legend:
[1] = tested on: Ae. aegypti + An. albimanus; assay: Bite protection of FRACUs (Defender-M) treated with insecticides; format: in vivo; settings: FRACU (Defender-M) sleeve; allethrin 0.085, bioresmethrin 0.106, etofenprox 0.101, bifenthrin 0.101 mg/cm^2
Method: Biological Evaluation: Bite protection assays were conducted with laboratory-reared 7-12 day old mosquitoes or sand flies. The species used throughout these studies are Aedes aegypti (Orlando, 1952) and Phlebotomus papatasi sand flies (Jerusalem, 1983). Females were pre-selected using either a hand draw box or a mechanical aspirator.
An assay was conducted by wearing sewn sleeves made from clothing material. Treated specimens were assayed with untreated controls to correct for the bite resistance afforded by material construction and composition. The untreated control was tested at the beginning of the experiment, followed by successively higher candidate repellent concentrations on sleeves. Sleeves were sewn from a cut out single ply trapezoidal pattern (33.2 cm×21 cm×25.5 cm height) of material. Sleeves were normally with a candidate repellent at the EPA permethrin label rate of 0.52% weight on (+5% tolerance) or less (0.125 mg/cm^2 for the 50/50 Nylon/Cotton (NYCO) Army Combat Uniform and 0108 mg./cm2 for the 65% Rayon/25% Para-aramid/10% Nylon Fire-Resistant Army Combat Uniform). Permethrin was 35:65cis: trans, 95.85% technical material. Experimental repellents were received as neat samples with <5% impurities. The treatment occurred by dissolution of repellent in suitable quantity of acetone to saturate the clothing, but minimizing excess solution. Excess solution was quantified and this amount of excess was then used to calculate the estimated amount of repellent applied to the material.
Insects were maintained in colony at approximately 78° F. and 60-80% RH. The photoperiod was 12:12. The mosquito cages were approximately 60000 cm^3 and each contained 175 to 225 female mosquitoes. […] Cages for sand fly work were slightly smaller (15000 cm^3) and constructed of acrylic for filming purposes and with screens on the exterior edges to allow air flow through the system. About 20-40 sand flies were released in cages for each assay. Assays started when the sleeved arm was inserted through the sleeve into the cage. Normally the hand was protected by a glove, but there were situations (i.e. sand fly data presented here) when the ability of a repellent to protect the untreated hand was determined. The assay periods were 15 min for the mosquitoes and 25-30 minutes for sand flies. The insects were allowed to land, probe and possibly bloodfeed during this time. At the conclusion of the experiment, all insects were knocked down or aspirated and the percentage that bloodfed of the total female test population in the cage was recorded. The protect level was calculated by Abbott's formula as a percentage reduction in bites compared to the untreated fabric control sleeve.
We were able to examine several treatments on the FRACU fabric sleeves (Table 7). […]

[2] = tested on: bed bugs (Cimex lectularius); assay: Bed bug mortality on treated filter paper; format: in vivo; settings: 24 h
[3] = tested on: bed bugs (Cimex lectularius); assay: Bed bug mortality on treated filter paper; format: in vivo
Method: Knockdown data and mortality for volatile pyrethroids against bed bugs (Cimex lectularius): Compounds were dissolved in acetone to yield concentrations of 100 μg/cm^2, 10 μg/cm^2, and 1 μg/cm^2 and 47 mm filter paper disks were treated. Acetone-treated filter paper was used as a negative control. Mixed stages (nymphs and adults) of a laboratory colony of the bed bug Cimex lectularius were placed on the treated filter paper in glass Petri dishes and mortality was recorded 24 h later, at which time bed bugs were removed to untreated surfaces. 24 h after this transfer another assessment of mortality was made to see if any dead or moribund bugs had recovered.

[4] = tested on: Phlebotomus papatasi sand flies; assay: Sleeve bite protection assay on treated uniform fabric, sand flies; format: in vivo, Phlebotomus papatasi (Jerusalem, 1983); settings: FRACU, permethrin sleeve 0.134 mg/cm^2 + treated strip, hand ungloved; strip TL-I-73 0.167, transfluthrin 0.161 mg/cm2
Method: (§1) Biological Evaluation: Bite protection assays were conducted with laboratory-reared 7-12 day old mosquitoes or sand flies. The species used throughout these studies are Aedes aegypti (Orlando, 1952) and Phlebotomus papatasi sand flies (Jerusalem, 1983). Females were pre-selected using either a hand draw box or a mechanical aspirator. An assay was conducted by wearing sewn sleeves made from clothing material. Treated specimens were assayed with untreated controls to correct for the bite resistance afforded by material construction and composition. The untreated control was tested at the beginning of the experiment, followed by successively higher candidate repellent concentrations on sleeves. Sleeves were sewn from a cut out single ply trapezoidal pattern (33.2 cm×21 cm×25.5 cm height) of material. […] Permethrin was 35:65cis: trans, 95.85% technical material. Experimental repellents were received as neat samples with <5% impurities. The treatment occurred by dissolution of repellent in suitable quantity of acetone to saturate the clothing, but minimizing excess solution. Excess solution was quantified and this amount of excess was then used to calculate the estimated amount of repellent applied to the material. […] The photoperiod was 12:12. The mosquito cages were approximately 60000 cm^3 and each contained 175 to 225 female mosquitoes. […] Cages for sand fly work were slightly smaller (15000 cm^3) and constructed of acrylic for filming purposes and with screens on the exterior edges to allow air flow through the system. About 20-40 sand flies were released in cages for each assay. Assays started when the sleeved arm was inserted through the sleeve into the cage. Normally the hand was protected by a glove, but there were situations (i.e. sand fly data presented here) when the ability of a repellent to protect the untreated hand was determined. The assay periods were 15 min for the mosquitoes and 25-30 minutes for sand flies. The insects were allowed to land, probe and possibly bloodfeed during this time. At the conclusion of the experiment, all insects were knocked down or aspirated and the percentage that bloodfed of the total female test population in the cage was recorded. The protect level was calculated by Abbott's formula as a percentage reduction in bites compared to the untreated fabric control sleeve. Specific conditions for bioassays are noted with corresponding data contained in the Tables.

[5] = tested on: Mosquitoes, either Aedes aegypti (Liverpool) or Anopheles stephensi Liston; assay: K&D module in vitro bioassay: biting protection, knockdown and mortality; format: in vivo
Method: In vitro bioassays were conducted as described by Klun et. al. (Klun, J. A., et al., J. Med. Entomol., 40: 293-299 (2005)). Each test replicate consisted of 3 treatments: a control (EtOH); a standard (Deet, 4.54 nmol/μl); and an experimental compound (pyrethroid analogs, 4.54 nmol/ul). The 3 treatments were randomly assigned to consecutive cells in 2, 6-cell reservoirs connected in series to a single water-bath pump; thus, 4 replicates could be tested/run. Tests were performed in an Air Science USA hood, with an air movement velocity of approx. 110-120 ft./min., temperature of 25-27° C., and RH of 15-25%. A 6-celled reservoir was connected to and heated by a constant-temperature (38° C.) water circulator (Lauda E100, Wobser GMGH and Co., Konigshofell, Germany).
Prior to each test, the upper surface of each reservoir was coated with a thin layer of high-vacuum silicone grease (Dow Corning Corp., Midland, Mich.), and the cells then filled (approx. 6 ml. capacity) or topped-off with either: (1) expired human red blood cells suspended in citrate-phosphate-dextrose-adenine (CPDA) solution, not more than 1 month past expiration date, and to which 110 mg ATP/35 ml. blood-CPDA had been added on the day of testing; or (2) CPDA+ATP×^−3, usually made up or diluted to 10^−3 ATP on the day of testing. The filled cells were then covered with an Edicol collagen membrane (Devro, Sandy Run, S.C.) strip, and then with a just-treated (110 μl of 4.54 nmol/μl treatment or control solution) organdy cloth (G Street Fabrics, Rockville, Md.) strip. Mosquitoes used in tests were either Aedes aegypti_(Liverpool) or Anopheles stephensi_Liston. K&D modules containing 5 adult females/cell were placed over a Teflon separator atop each reservoir; the sliding floors opened allowing access to the treated organdy cloth and membrane-covered cell; and the number of mosquitoes biting (proboscis inserted through the cloth) and/or observed to be engorged within each cell at the end of a 3-5 min. exposure period was recorded. Mosquitoes were used only once in a test, and then frozen and discarded.
Only tests in which 3 or more females fed in the control cell were analyzed, as lower feeding rates are indicative of substandard feeding readiness of that group of mosquitoes.
[…] Data were collected to record knockdown in 6 minutes, one hour and 24 hours post exposure.

[6] = tested on: Ae. aegypti mosquitoes; assay: Sleeve bite protection assay on treated uniform fabric, mosquitoes; format: in vivo, Aedes aegypti (Orlando, 1952)
Method: as §1

[7] = ACU sleeve, No Glove on hand, permethrin 0.118, transfluthrin 0.108 mg/cm^2
[8] = ACU sleeve, stored one year then tested, concentrations as E1
[9] = FRACU sleeve, concentrations as E9
[10] = FRACU, untreated sleeve + treated strip, Ultrathon (34.34% DEET) on hand, TL-I-73 0.163, transfluthrin 0.158 mg/cm^2
[11] = FRACU, untreated sleeve + treated strip, hand gloved, TL-I-73 0.163, transfluthrin 0.158 mg/cm^2

## Cc1c(COC(=O)[C@@H]2[C@H](/C=C(\Cl)C(F)(F)F)C2(C)C)cccc1-c1ccccc1 (racemic) [Bifenthrin]
[1]
  Bite Protection (% ± SE) (Ae. aegypti + An. albimanus): 91.5 ± 1.1%

## Cc1c(Cl)c(Cl)c(COC(=O)[C@@H]2[C@@H](C=C(Cl)Cl)C2(C)C)c(Cl)c1Cl [TL-I-111]
[2]
  mortality at 5 µg/cm2: 100%
[3]; Cimex lectularius, 24 h
  mortality at 1 µg/cm2: 0%
  mortality at 10 µg/cm2: 100%
  mortality at 100 µg/cm2: 100%

## CC1(C)[C@H](C=C(Cl)Cl)[C@H]1C(=O)OCc1c(F)c(F)cc(F)c1F [Transfluthrin, transfluthrin]
[4]
  Bite Protection (%): significant protection from sand fly bites to the unprotected hand
[5]; 2.5 nM\cm^2, K&D module
  Knockdown 6 min (%): 100%
  Knockdown 24 hours (%): 100%
  Not feeding 3 minutes (%): 100%
[5]; 2.5 nmol/cm^2, K&D module
  Knockdown 1 hour (%): 100%
[5]; 25 nM\cm^2, K&D module
  Knockdown 6 min (%): 100%
  Knockdown 24 hours (%): 100%
  Not feeding 3 minutes (%): 100%
[5]; 25 nmol/cm^2, K&D module
  Knockdown 1 hour (%): 100%
[5]; Aedes aegypti, 24 h
  mortality at 0.0025 µM: 100%
[5]; Aedes aegypti, 48 h
  mortality at 0.025 µM: 100%
[3]; at either 100 μg/cm^2 or 10 μg/cm^2
  mortality (in words): no mortality or mortality less than 100%
[3]; concentration not clearly stated for this group
  mortality (value in parentheses): 20%
[6]; ACU (50/50 NYCO) sleeve, glove on hand, 15 min, permethrin 0.118, transfluthrin 0.108, TL-I-107 0.107, TL-I-141 0.109, TL-I-105 0.107, TL-I-73 0.102 mg/cm^2
  Blood-fed #: 0 #
[6]; ACU (50/50 NYCO) sleeve, glove on hand, Abbott's formula vs untreated sleeve, concentrations as E1
  Bite Protection (%): 100%
[6]; ACU (50/50 NYCO) sleeve, glove on hand, concentrations as E1
  Fed (%): 0.0%
[6]; [7]
  Blood-fed #: 4 #
  Fed (%): 2.1%
[6]; ACU sleeve, glove removed from hand, compared with permethrin
  protecting non-repellent treated surfaces of skin (i.e. the hand): superior to permethrin
[6]; [8]
  Bite Protection (%): 100%
  Fed (%): 0.0%
[6]; ACU sleeve, treated specimens stored in refrigerator for one year then tested, concentrations as E1
  Blood-fed #: 0 #
[6]; Defender-M FRACU sleeve at 0.52 mg/cm2
  bite protection: 100%
[6]; FRACU (65% Rayon, 10% Nylon, 25% Para-aramid) sleeve, permethrin 0.071, combination permethrin 0.031 + transfluthrin 0.038, transfluthrin 0.052 mg/cm^2
  Blood-fed #: 0 #
[6]; [9]
  Bite Protection (%): 100.0%
  Fed (%): 0.0%
[6]; FRACU sleeve, concentrations as E9, listed as transfluthrin
  Bite Protection (%): 100%
[6]; FRACU, permethrin sleeve 0.134 mg/cm^2 + treated strip, hand gloved, strip TL-I-73 0.167, transfluthrin 0.161 mg/cm^2
  Bite Protection (%): 100%
[6]; FRACU, untreated sleeve + treated strip (20.5 cm × 2.6 cm) at wrist, hand gloved, TL-I-73 0.163, transfluthrin 0.158 mg/cm^2
  Blood-fed #: 11 #
[6]; FRACU, untreated sleeve + treated strip, Ultrathon 12 hr repellent (34.34% DEET) on hand, TL-I-73 0.163, transfluthrin 0.158 mg/cm^2
  Blood-fed #: 6 #
[6]; [10]
  Bite Protection (%): 89.2%
  Fed (%): 2.9%
[6]; [11]
  Bite Protection (%): 93.3%
  Fed (%): 5.5%

## C=CCC1=C(C)C(OC(=O)C2C(C=C(C)C)C2(C)C)CC1=O (stereo not shown) [Allethrin]
[1]
  Bite Protection (% ± SE) (Ae. aegypti + An. albimanus): 98.7 ± 0.8%
